The values below come from patent US20260035384A1, “COMPOUND CONTAINING CYCLOHEXYL” (CHIA TAI TIANQING PHARMACEUTICAL GROUP CO., LTD., priority 2022, published 2026).

Assay type in all cases: cell-based
For one test, the target named is T1, AR in LNCaP cells (Homo sapiens, UniProt P10275, T878A).
T1 construct: Assay on Degradation Activity for AR in LNCaP Cells; endogenous in cells; host or cells: LNCaP cells
T1 sequence (P10275 1-920 T878A): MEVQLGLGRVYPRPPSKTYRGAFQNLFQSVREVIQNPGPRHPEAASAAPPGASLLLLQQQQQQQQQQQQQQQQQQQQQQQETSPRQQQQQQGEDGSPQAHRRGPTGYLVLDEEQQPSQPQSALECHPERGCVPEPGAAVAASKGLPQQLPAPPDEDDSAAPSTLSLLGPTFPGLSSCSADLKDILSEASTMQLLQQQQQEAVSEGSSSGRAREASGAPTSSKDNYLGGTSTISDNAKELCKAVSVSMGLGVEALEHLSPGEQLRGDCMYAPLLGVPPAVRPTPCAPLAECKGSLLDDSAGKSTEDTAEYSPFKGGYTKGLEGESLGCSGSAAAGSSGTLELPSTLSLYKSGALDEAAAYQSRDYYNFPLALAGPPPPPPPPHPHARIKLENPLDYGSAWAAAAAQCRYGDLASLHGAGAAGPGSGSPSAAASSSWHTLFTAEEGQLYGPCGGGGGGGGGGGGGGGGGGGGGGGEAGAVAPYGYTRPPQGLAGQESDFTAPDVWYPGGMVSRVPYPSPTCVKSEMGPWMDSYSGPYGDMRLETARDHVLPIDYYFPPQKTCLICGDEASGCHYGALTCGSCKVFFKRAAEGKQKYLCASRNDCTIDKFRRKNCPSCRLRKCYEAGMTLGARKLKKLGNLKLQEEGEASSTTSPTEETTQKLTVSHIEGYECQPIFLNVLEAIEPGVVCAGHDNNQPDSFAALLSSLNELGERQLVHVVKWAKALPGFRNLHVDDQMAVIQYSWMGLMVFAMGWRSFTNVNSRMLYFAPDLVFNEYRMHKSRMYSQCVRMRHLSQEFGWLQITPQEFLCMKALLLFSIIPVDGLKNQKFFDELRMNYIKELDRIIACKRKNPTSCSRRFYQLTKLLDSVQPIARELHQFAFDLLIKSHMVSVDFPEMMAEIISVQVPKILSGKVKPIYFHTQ
The experiment in a line: Assay on degradation activity for AR in LNCaP cells (HTRF human androgen receptor detection kit). The conditions noted are these: 24 h incubation; for DC50: HTRF; for Dmax: maximum degradation rate. On the procedure: The detection was carried out using the HTRF HUMAN ANDROGEN RECEPTOR DETECTION KIT (cisbio, 64ANDRPEG), 4× Supplemented Lysis buffer was prepared using the Blocking reagent stock solution (100×) and Lysis buffer stock solution (4×), and 1× Supplemented Lysis buffer was prepared using the 4× Supplemented Lysis buffer and ddH2O. Premixed antibody solutions were prepared using Detection buffer, Androgen Receptor Eu Cryptate antibody, and Androgen Receptor d2 antibody.
LNCaP cells in a good growth state were taken, washed with PBS, digested with pancreatin, and added with 2% CSS—FBS phenol red-free 1640 complete medium to terminate the digestion. The cells were collected by using a centrifuge tube, adjusted to a cell density of 1×10^6 cells/mL, and seeded in a 96-well plate (100 μL/well). The cells were incubated overnight in a cell incubator. Compounds were added using a nanoliter pipettor such that the final concentrations of the compounds were 500 nM-0.488 nM. Two duplicate wells were set for each concentration, and meanwhile, a control was set. After another 24 h of incubation in the cell incubator, the medium was pipetted out, the 1× Supplemented Lysis buffer was added at 40 μL/well to lyse the cells. After the cells were oscillated for 40 min at room temperature, 16 μL of the cell lysate was added to a 384-well plate, the Premixed antibody solutions were added at 4 μL/well, and the mixture was left to stand at 25° C. for 2 h. Fluorescence values were detected at 665 nm/620 nm using an Envision microplate reader, the four-parameter analysis was performed, the dose-response curves were fit, and DC50 (the concentration of the drug when the degradation rate reaches 50%) and Dmax (the maximum degradation rate) were calculated.

The subject of a further test is LNCaP cells. The test can be described thus: Assay on inhibitory activity for LNCaP cell proliferation (CCK-8). The note with it: 168 h incubation. On the procedure:
(§1) LNCaP cells in a good growth state were taken, washed with PBS, digested with pancreatin, and added with 2% CSS—FBS phenol red-free 1640 complete medium to terminate the digestion. The cells were collected by using a centrifuge tube, adjusted to a cell density of 1×10^5 cells/mL, and seeded in a 96-well plate (100 μL/well). Meanwhile, compounds were added using a nanoliter pipettor such that the final concentrations of the compounds were 10000 nM-0.61 nM. Two duplicate wells were set for each concentration, and meanwhile, a control was set. After another 168 h of incubation in the cell incubator, the detection reagent CCK-8 (manufacturer: Dojindo, 10 μL/well) was added.

The next test relates to VCaP cells. The experiment in a line: Assay on inhibitory activity for VCaP cell proliferation (CCK-8). The conditions noted are these: 168 h incubation. On the procedure:
as §1, with “2.1 Assay on inhibitory activity for VCaP cell proliferation VCaP” for “LNCaP”, “5%” for “2%”, “DMEM” for “1640”

In the case of `N#Cc1ccc(O[C@H]2CC[C@H](NC(=O)c3ccc(N4CCC(CN5CCc6ccc7c(C8CCC(=O)NC8=O)noc7c6CC5)CC4)nn3)CC2)cc1Cl` (stereo partly drawn) [Compound 20], on AR in LNCaP cells, the DC50 (commonly the concentration at which degradation of the target reaches its halfway point) was ≤ 20 nM and the maximal degradation (Dmax) (in general, the greatest extent of degradation seen) is > 80%. Besides, the IC50 (as a rule, the concentration needed to halve the response being measured) with LNCaP cells (Homo sapiens) was < 1000 nM.

In the case of `N#Cc1ccc(O[C@H]2CC[C@H](NC(=O)c3ccc(N4CCC5(CC4)CC(CN4CCc6ccc7c(C8CCC(=O)NC8=O)noc7c6C4)C5)nn3)CC2)cc1Cl` (stereo partly drawn) [Compound 35], on AR in LNCaP cells, the DC50 is ≤ 20 nM and the Dmax is > 80%. In addition, in the test on VCaP cells (Homo sapiens), the IC50 is < 100 nM. In the test on LNCaP cells (Homo sapiens), the IC50 was < 1000 nM.

For `N#Cc1ccc(O[C@H]2CC[C@H](NC(=O)c3cnc(C4CCN(C5CN(CC6Cc7ccc8c(C9CCC(=O)NC9=O)coc8c7C6)C5)CC4)nc3)CC2)cc1Cl` (stereo partly drawn) [Compound 112], the IC50 in the test on VCaP cells and in the test on LNCaP cells was < 1000 nM throughout.

For the compound `CN(c1ccc(C#N)c(Cl)c1)[C@H]1CC[C@H](NC(=O)c2cnc(N3CC(CN4CCc5c(ccc6c(C7CCC(=O)NC7=O)noc56)C4)C3)nc2)CC1` (stereo partly drawn) [Compound 114], the IC50 is < 100 nM in the test on VCaP cells (Homo sapiens, VCaP, 168 h) and < 1000 nM with LNCaP cells (Homo sapiens).

For `N#Cc1ccc(O[C@H]2CC[C@H](NC(=O)c3cnc(N4CCC(CN5CCc6ccc7c(C8CCC(=O)NC8=O)noc7c6C5)CC4)nc3)CC2)cc1Cl` (stereo partly drawn) [Compound 120], the IC50 is < 1000 nM with VCaP cells (Homo sapiens, VCaP, 168 h) and < 1000 nM in the test on LNCaP cells (Homo sapiens).

On to `N#Cc1ccc(O[C@H]2CC[C@H](NC(=O)c3cnc(N4CCC(CN5CCc6c(ccc7c(C8CCC(=O)NC8=O)noc67)C5)CC4)nc3)CC2)cc1Cl` (stereo partly drawn) [Compound 121], for which the IC50 in the test on VCaP cells (Homo sapiens, VCaP, 168 h) is < 10 nM; in the test with LNCaP cells (Homo sapiens), < 1000 nM.

As to `N#Cc1ccc(O[C@H]2CC[C@H](NC(=O)c3cnc(N4CCC(CN5CCc6ccc7c(C8CCC(=O)NC8=O)noc7c6CC5)CC4)nc3)CC2)cc1Cl` (stereo partly drawn) [Compound 122], at AR in LNCaP cells, the DC50 was ≤ 20 nM. Besides, the Dmax on AR in LNCaP cells was > 80%. Besides, the IC50 was < 100 nM in the test on VCaP cells (Homo sapiens, VCaP, 168 h) and < 1000 nM in the test with LNCaP cells (Homo sapiens).

With `N#Cc1ccc(O[C@H]2CC[C@H](NC(=O)c3cnc(N4CCN(CC5Cc6ccc7c(C8CCC(=O)NC8=O)noc7c6C5)CC4)nc3)CC2)cc1Cl` (stereo partly drawn) [Compound 123], the IC50 is < 1000 nM in the test with VCaP cells (Homo sapiens, VCaP, 168 h) and < 1000 nM in the test with LNCaP cells (Homo sapiens).

In the case of `N#Cc1ccc(O[C@H]2CC[C@H](NC(=O)c3cnc(N4CCC5(CC4)CC(CN4Cc6ccc7c(C8CCC(=O)NC8=O)noc7c6C4)C5)nc3)CC2)cc1Cl` (stereo partly drawn) [Compound 128], the IC50 in the test with VCaP cells (Homo sapiens, VCaP, 168 h) was < 100 nM; in the test with LNCaP cells (Homo sapiens), < 1000 nM.

Take `N#Cc1ccc(O[C@H]2CC[C@H](NC(=O)c3cnc(N4CCC5(CC4)CC(CN4CCc6ccc7c(C8CCC(=O)NC8=O)noc7c6C4)C5)nc3)CC2)cc1Cl` (stereo partly drawn) [Compound 129]: the IC50 in the test with VCaP cells (Homo sapiens, VCaP, 168 h) was < 100 nM; in the test with LNCaP cells (Homo sapiens) it was < 1000 nM.

With `N#Cc1ccc(O[C@H]2CC[C@H](NC(=O)c3cnc(N4CCC5(CC4)CC(CN4CCc6c(ccc7c(C8CCC(=O)NC8=O)noc67)C4)C5)nc3)CC2)cc1Cl` (stereo partly drawn) [Compound 130], the IC50 with VCaP cells (Homo sapiens, VCaP, 168 h) is < 100 nM; in the test with LNCaP cells (Homo sapiens), < 1000 nM.

As for `N#Cc1ccc(O[C@H]2CC[C@H](NC(=O)c3cnc(N4CCC5(CC4)CC(CN4CCc6ccc7c(C8CCC(=O)NC8=O)noc7c6CC4)C5)nc3)CC2)cc1Cl` (stereo partly drawn) [Compound 131], the half-inhibitory concentration (IC50) in the test with VCaP cells (Homo sapiens, VCaP, 168 h) is < 100 nM; in the test with LNCaP cells (Homo sapiens), < 1000 nM.

For the compound `N#Cc1ccc(O[C@H]2CC[C@H](NC(=O)c3cnc(N4CCC(CN5Cc6ccc7c(C8CCC(=O)NC8=O)coc7c6C5)CC4)nc3)CC2)cc1Cl` (stereo partly drawn) [Compound 132], the IC50 is < 1000 nM with VCaP cells (Homo sapiens, VCaP, 168 h) and < 1000 nM with LNCaP cells (Homo sapiens).

As to `N#Cc1ccc(O[C@H]2CC[C@H](NC(=O)c3cnc(N4CCC(CN5CCc6ccc7c(C8CCC(=O)NC8=O)coc7c6C5)CC4)nc3)CC2)cc1Cl` (stereo partly drawn) [Compound 133], the concentration for half-maximal inhibition (IC50) with VCaP cells (Homo sapiens, VCaP, 168 h) is < 1000 nM; in the test on LNCaP cells (Homo sapiens), < 1000 nM.

As to `N#Cc1ccc(O[C@H]2CC[C@H](NC(=O)c3cnc(N4CCC(CN5CCc6c(ccc7c(C8CCC(=O)NC8=O)coc67)C5)CC4)nc3)CC2)cc1Cl` (stereo partly drawn) [Compound 134], the IC50 in the test on VCaP cells (Homo sapiens, VCaP, 168 h) is < 100 nM; in the test with LNCaP cells (Homo sapiens), < 1000 nM.

Turning to `N#Cc1ccc(O[C@H]2CC[C@H](NC(=O)c3cnc(N4CCN(CC5Cc6ccc7c(C8CCC(=O)NC8=O)coc7c6C5)CC4)nc3)CC2)cc1Cl` (stereo partly drawn) [Compound 136], the IC50 in the test with VCaP cells (Homo sapiens, VCaP, 168 h) is < 1000 nM; in the test on LNCaP cells (Homo sapiens), < 1000 nM.

As to `N#Cc1ccc(O[C@H]2CC[C@H](NC(=O)c3cnc(N4CCN(CC5Cc6ccc7c(C8CCC(=O)NC8=O)coc7c6C5)CC4)nc3)CC2)cc1Cl` (stereo partly drawn) [Compound 137], the IC50 in the test on VCaP cells and in the test with LNCaP cells was < 1000 nM throughout.

Consider `N#Cc1ccc(O[C@H]2CC[C@H](NC(=O)c3cnc(N4CCC(CN5CCc6ccc7c(N8CCC(=O)NC8=O)coc7c6C5)CC4)nc3)CC2)cc1Cl` [Compound 139], for which the IC50 in the test on VCaP cells (Homo sapiens, VCaP, 168 h) is < 1000 nM; with LNCaP cells (Homo sapiens), < 1000 nM.

Consider `N#Cc1ccc(O[C@H]2CC[C@H](NC(=O)c3cnc(N4CC(CN5CCc6c(ccc7c(C8CCC(=O)NC8=O)noc67)C5)C4)nc3)CC2)cc1Cl` (stereo partly drawn) [Compound 142], for which the IC50 with VCaP cells (Homo sapiens, VCaP, 168 h) was < 1000 nM; in the test on LNCaP cells (Homo sapiens) it was < 1000 nM.

In the case of `N#Cc1ccc(O[C@H]2CC[C@H](NC(=O)c3ncc(N4CCC(CN5CCc6c(ccc7c(C8CCC(=O)NC8=O)noc67)C5)CC4)cn3)CC2)cc1Cl` (stereo partly drawn) [Compound 146], the IC50 in the test on VCaP cells (Homo sapiens, VCaP, 168 h) was < 1000 nM; in the test on LNCaP cells (Homo sapiens), < 1000 nM.
